Laboratory results taken from patent JP2016013988A, “エステル化合物” (Mitsubishi Gas Chemical Co Inc, priority 2014, dated 2016).

assay: APHA (colour number) of the purified diester; format: physicochemical; details: after KOH/water washing, removal of acid under reduced pressure and activated carbon treatment

APHA | Compound
28 | CCCCC(CC)(COCC(C)(C)COC(=O)C(C)(C)C)COC(=O)C(C)(C)C (stereo not drawn) [実施例1, ジピバリン酸 4−オキサ−2−ブチル−2−エチル−6,6−ジメチルヘプタン−1,7−ジイル]
27 | CCCC(C)(COCC(C)(C)COC(=O)C(C)(C)C)COC(=O)C(C)(C)C (stereo not drawn) [実施例2, ジピバリン酸 4−オキサ−2−プロピル−2,6,6−トリメチルヘプタン−1,7−ジイル]
22 | CCCCC(CC)C(=O)OCC(C)(C)COCC(C)(CCC)COC(=O)C(CC)CCCC (stereo not drawn) [実施例4, ビス(2−エチルへキサン酸) 4−オキサ−2−プロピル−2,6,6−トリメチルヘプタン−1,7−ジイル]
